# From patent publication US10966969B2, “Therapeutic agent for liver diseases” (APTABIO THERAPEUTICS INC., priority 2017, dated 2021)
# Columns and labels:
# [1] = system: fatty liver model animal induced by diabetic db/db mice; assay: Test using fatty liver model animal induced by diabetic db/db mice; format: in vivo, diabetic db/db mice (C57BLKS/J-leprdb/leprdb); details: daily single dose of 60 mg/kg
# Method: As subject animals, 6-week-old male diabetic db/db mice (C57BLKS/J-leprdb/leprdb) were purchased from Jackson Laboratory (Bar Harbor, Me., USA). The mice were kept under standard conditions. When the mice became 8 weeks old after being bred for about 2 weeks, test substances were administered to the mice. For 12 weeks after the mice became 8 weeks old, test substances were separately administered to a vehicle administration group and a 3-phenyl-4-normalpropyl-1-(pyridin-2-yl)-1H-pyrazol-5-ol hydrochloride administration group. A normal control group was used as a negative control. After completion of the test, the animals were anesthetized, liver tissues were taken out from respective animals and blood for inspection was collected. The liver tissues were weighed and imaged. The liver tissues were immobilized in 10% buffered neutral formalin. The immobilized tissues were cut to a predetermined thickness, subjected to a general tissue treatment process, embedded in paraffin and produced into tissue sections with a size of 4 to 5 μm, and the tissue sections were subjected to Hematoxylin & Eosin (H&E stain) as a general staining method and were histopatho-logically observed. In addition to H&E staining, Oil red-O staining was conducted in order to observe lipids induced by formation of fatty liver, levels of produced lipids were measured and an effect of drug administration on reduction of lipids was predicted. The liver tissues were stained with an Oil red 0 working solution, to evaluate levels of produced lipids. Blood was collected and centrifuged at 3000 rpm at 4° C. for 10 min. The serum of the upper layer was taken and the levels of triglyceride (TG) and LDL-cholesterol (LDL-C) were measured using an automatic blood biochemical analyzer (AU480, Beckman 30-18 Coulter, USA) and the results were analyzed. A ratio of liver weight to body weight was measured and the amount of triglyceride in liver tissues was measured to expect effects of drug administration on reduction of relative liver weight and triglyceride. The liver tissues were ground with a homogenizer, chloroform and methanol (2:1) were added thereto, the resulting mixture was centrifuged at 3,000 rpm and at 4° C. for 10 minutes and the organic solvent layer containing lipids was separated. The organic solvent in the separated lipid layer was removed in the dryer at 50° C. for 12 hours. The lipid-only tubes were immersed in 100% EtOH, and then suspended in a lipid-free tube and then assayed with a kit reagent for measuring triglyceride (AM157S-K, Asan, Korea).
# [2] = system: fatty liver model animal induced by high fat diet; assay: Test using fatty liver model animal induced by high fat diet; format: in vivo; details: high fat diet rats, daily single dose of 60 mg/kg, compared to the vehicle group and the obeticholic acid group
# Method: As subject animals, 6-week-old rats were purchased. All rats were kept under standard conditions. When the rats became 12 weeks old after being bred for about 6 weeks, test substances were administered to the rats. Test groups were set based on ALT level in blood collected at 5 weeks. For 5 weeks after the rats reached 12 weeks old, test substances were separately administered to a vehicle administration group, an obeticholic acid administration group as a positive control group, and a 3-phenyl-4-normalpropyl-1-(pyridin-2-yl)-1H-pyrazol-5-ol hydrochloride administration group. Blood was collected one day before the start of the experiment (from jugular vein), and blood samples were collected on the 5 weeks, 8 weeks and on the day of the autopsy (24 hours after the fasting, total 4 times). In addition, plasma of each blood sample collected on the 5th week, 8th week and the day of the autopsy were analyzed. After completion of the test, the animals were anesthetized, liver tissues were taken out from respective animals and blood for inspection was collected. The liver tissues were weighed and imaged. The liver tissues were immobilized in 10% buffered neutral formalin. The immobilized tissues were cut to a predetermined thickness, subjected to a general tissue treatment process, embedded in paraffin and produced into tissue sections with a size of 4 to 5 μm, and the tissue sections were subjected to Hematoxylin & Eosin (H&E stain) as a general staining method and were histopatho-logically observed. In addition to H&E staining, Oil red-o staining was conducted in order to observe lipids induced by formation of fatty liver, levels of produced lipids were measured and an effect of drug administration on reduction of lipids was predicted. The liver tissues were stained with an Oil red o working solution, to evaluate levels of produced lipids. Blood was collected and centrifuged at 3000 rpm at 4° C. for 10 min. The serum of the upper layer was taken and the levels of alkaline phosphate (ALP), aspartate transminase (AST) and alanine transaminase (ALT) were measured using an automatic blood biochemical analyzer (AU480, Beckman 30-18 Coulter, USA) and the results were analyzed. A ratio of liver weight to body weight was measured and the amount of triglyceride in liver tissues was measured to expect effects of drug administration on reduction of relative liver weight and triglyceride. The liver tissues were ground with a homogenizer, chloroform and methanol (2:1) were added thereto, the resulting mixture was centrifuged at 3,000 rpm and at 4° C. for 10 minutes and the organic solvent layer containing lipids was separated. The organic solvent in the separated lipid layer was removed in the dryer at 50° C. for 12 hours. […]
# [3] = system: fatty liver model animal induced by MCD (methionine/choline deficient) diet; assay: Test using fatty liver model animal induced by MCD (methionine/choline deficient) diet; format: in vivo, Sprague Dawley (SD) rats; details: MCD diet rats, daily single dose of 60 mg/kg, compared to the vehicle group
# Method: As subject animals, 6-week-old male Sprague Dawley (SD) rats were purchased. All rats were kept under standard conditions. When the rats became 12 weeks old after being bred for about 6 weeks, test substances were administered to the rats. Test groups were set based on ALT level in blood collected at 5 weeks. For 5 weeks after the rats became 12 weeks old, test substances were separately administered to a vehicle administration group and a 3-phenyl-4-n-propyl-1-(pyridin-2-yl)-1H-pyrazol-5-ol hydrochloride administration group. A normal control group was used as a negative control. Blood was collected one day before the start of the experiment (from the jugular vein), and blood samples were collected on the 3 weeks, 5 weeks, 7 weeks, 9 weeks and on the day of the autopsy (24 hours after the fasting, total six times). In addition, plasma of each blood sample collected on the 5 weeks, 7 weeks, 9 weeks and on the day of the autopsy were analyzed. After completion of the test, the animals were anesthetized, liver tissues were taken out from respective animals and blood for inspection was collected. The liver tissues were weighed and imaged. The liver tissues were immobilized in 10% buffered neutral formalin. […] In addition to H&E staining, Oil red-O staining was conducted in order to observe lipids induced by formation of fatty liver, levels of produced lipids were measured and an effect of drug administration on reduction of lipids was predicted. […] The serum of the upper layer was taken and the level of alanine transaminase (ALT) was measured using an automatic blood biochemical analyzer (AU480, Beckman 30-18 Coulter, USA) and the results were analyzed. A ratio of liver weight to body weight was measured and the amount of triglyceride in liver tissues was measured to expect effects of drug administration on reduction of relative liver weight and triglyceride. […] Results are analyzed.
# [4] = compared to the vehicle group, FIG. 6C
compound,measurement,setting,value
"CCCc1c(-c2ccccc2)nn(-c2ccccn2)c1O.Cl [compound 1, 3-phenyl-4-n-propyl-1-(pyridin-2-yl)-1H-pyrazol-5-ol hydrochloride]",level of LDL in blood,[1]; FIG. 6A and 6B,decreasing levels
same,level of LDL in liver tissues,[1]; FIG. 6A and 6B,decreasing levels
same,level of TG in blood,[1]; FIG. 6A and 6B,decreasing levels
same,level of TG in liver tissues,[1]; FIG. 6A and 6B,decreasing levels
same,liver tissue damage and hepatic fibrosis (TGF-β and Type IV collagen staining in liver tissues),"[1]; compared to the vehicle group, FIG. 5",significantly reduced
same,mRNA expression of MCP-1 in liver tissues,[1]; [4],considerably reduced
same,mRNA expression of PAI-1 in liver tissues,[1]; [4],considerably reduced
same,mRNA expression of TGF-β in liver tissues,[1]; [4],considerably reduced
same,mRNA expression of collagen I in liver tissues,[1]; [4],considerably reduced
same,mRNA expression of collagen IV in liver tissues,[1]; [4],considerably reduced
same,relative liver weight,[2]; FIG. 4A,significantly reduced
same,level of ALP in blood,[2]; FIG. 4B-4D,considerably decreased
same,level of ALT in blood,[2]; FIG. 4B-4D,considerably decreased
same,level of AST in blood,[2]; FIG. 4B-4D,considerably decreased
same,level of ALT in the blood,[3]; FIG. 1,significantly reduced
same,"inflammation in liver tissues (staining of α-SMA, IL-1β and TNF-α)",[3]; FIG. 2,considerably reduced
same,"liver tissue damage and hepatic fibrosis (TGF-β, H&E staining, Oil red O staining)",[3]; FIG. 3,reduced
